Test results reported in ChEMBL document CHEMBL1201862, “PubChem BioAssay data set” (2004).
The source made the active and inactive calls.

Assays:
[1] = molecular target: T1, Carboxy-terminal domain RNA polymerase II polypeptide A small phosphatase 1 (Homo sapiens, UniProt Q9GZU7); assay: inhibitors of CTDSP1, concentration-response testing, biochemical assay, absorbance-based, actives from ultra-high-throughput screening (AID 540297); type: functional
T1 sequence (Q9GZU7 whole entry): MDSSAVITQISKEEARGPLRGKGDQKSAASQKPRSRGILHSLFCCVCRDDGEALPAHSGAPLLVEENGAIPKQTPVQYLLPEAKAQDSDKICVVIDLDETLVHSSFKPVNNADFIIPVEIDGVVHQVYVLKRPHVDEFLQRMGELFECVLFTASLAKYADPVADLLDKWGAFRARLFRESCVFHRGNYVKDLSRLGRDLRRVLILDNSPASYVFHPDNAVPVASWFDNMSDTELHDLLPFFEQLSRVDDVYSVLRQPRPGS

[2] = molecular target: T2, Zinc finger protein mex-5 (Caenorhabditis elegans, UniProt Q9XUB2); assay: MEX-5/TCR-2 RNA interaction inhibitors, dose response, biochemical, C. elegans, fluorescence polarization (AID 1960)
T2 sequence (Q9XUB2 whole entry): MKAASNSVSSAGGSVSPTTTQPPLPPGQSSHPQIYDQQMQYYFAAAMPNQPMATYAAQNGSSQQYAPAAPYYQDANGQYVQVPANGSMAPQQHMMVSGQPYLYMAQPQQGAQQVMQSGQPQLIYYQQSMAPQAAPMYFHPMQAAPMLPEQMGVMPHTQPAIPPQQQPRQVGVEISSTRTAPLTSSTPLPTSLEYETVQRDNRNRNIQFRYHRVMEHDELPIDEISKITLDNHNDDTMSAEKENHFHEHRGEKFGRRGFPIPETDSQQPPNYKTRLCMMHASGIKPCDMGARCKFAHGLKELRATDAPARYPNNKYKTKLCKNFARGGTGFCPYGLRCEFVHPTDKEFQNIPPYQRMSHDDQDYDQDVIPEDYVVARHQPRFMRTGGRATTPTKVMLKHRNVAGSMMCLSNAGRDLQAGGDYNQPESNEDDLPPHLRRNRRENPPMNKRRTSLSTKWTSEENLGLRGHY

[3] = molecular target: T3, RNA-binding protein pos-1 (Caenorhabditis elegans, UniProt G5EF15); assay: inhibitors of POS-1/mex-3 RNA binding, dose response, biochemical, fluorescence polarization (AID 1964);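 note: purified POS-1 fused to maltose binding protein made in E. coli; potency of compounds blocking POS-1 binding to fluorescent RNA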
T3 sequence (G5EF15 whole entry): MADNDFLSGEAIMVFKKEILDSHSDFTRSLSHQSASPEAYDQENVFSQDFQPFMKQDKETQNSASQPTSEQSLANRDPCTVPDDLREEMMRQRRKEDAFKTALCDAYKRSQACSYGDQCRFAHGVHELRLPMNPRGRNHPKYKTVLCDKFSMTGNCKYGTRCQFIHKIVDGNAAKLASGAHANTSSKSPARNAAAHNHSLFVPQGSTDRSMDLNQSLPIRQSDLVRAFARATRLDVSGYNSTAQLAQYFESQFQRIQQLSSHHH

[4] = molecular target: T4, Microphthalmia-associated transcription factor (Homo sapiens, UniProt O75030); assay: TRPM1 promoter luciferase signal decrease, dose response, MITF inhibitor project, cell-based, SK-MEL-5, cherry-picked, set 3 (AID 493073); type: functional
T4 sequence (O75030 whole entry): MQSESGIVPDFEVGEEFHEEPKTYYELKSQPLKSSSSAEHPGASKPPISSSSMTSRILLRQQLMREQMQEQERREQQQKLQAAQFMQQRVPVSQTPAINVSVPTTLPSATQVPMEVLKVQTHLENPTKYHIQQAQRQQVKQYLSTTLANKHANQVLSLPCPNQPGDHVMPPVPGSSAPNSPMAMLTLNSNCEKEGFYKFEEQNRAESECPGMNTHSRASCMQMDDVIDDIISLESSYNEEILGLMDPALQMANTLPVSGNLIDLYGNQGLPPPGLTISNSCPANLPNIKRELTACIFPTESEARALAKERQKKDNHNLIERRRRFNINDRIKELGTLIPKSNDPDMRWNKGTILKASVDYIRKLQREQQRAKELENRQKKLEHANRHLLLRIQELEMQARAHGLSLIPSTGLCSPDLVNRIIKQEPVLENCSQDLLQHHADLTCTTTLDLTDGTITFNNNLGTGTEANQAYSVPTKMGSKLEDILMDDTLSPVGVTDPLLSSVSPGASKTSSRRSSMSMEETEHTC

[5] = molecular target: Heat shock protein HSP 90-alpha (Homo sapiens, UniProt P07900); type: functional, organism-based
[6] = Luminescence Cell-Based Dose Confirmation HTS to Identify Inhibitors of Platelet Dense Granule Release. [Related pubchem assays: 1663 (Primary HTS), 1678 (Summary of Project)]; type: functional
[7] = molecular target: Luciferin 4-monooxygenase (Photinus pyralis, UniProt P08659); assay: firefly luciferase enzyme inhibitors, dose response, biochemical, luminescence (AID 1891)
Sequence of Luciferin 4-monooxygenase (P08659 whole entry): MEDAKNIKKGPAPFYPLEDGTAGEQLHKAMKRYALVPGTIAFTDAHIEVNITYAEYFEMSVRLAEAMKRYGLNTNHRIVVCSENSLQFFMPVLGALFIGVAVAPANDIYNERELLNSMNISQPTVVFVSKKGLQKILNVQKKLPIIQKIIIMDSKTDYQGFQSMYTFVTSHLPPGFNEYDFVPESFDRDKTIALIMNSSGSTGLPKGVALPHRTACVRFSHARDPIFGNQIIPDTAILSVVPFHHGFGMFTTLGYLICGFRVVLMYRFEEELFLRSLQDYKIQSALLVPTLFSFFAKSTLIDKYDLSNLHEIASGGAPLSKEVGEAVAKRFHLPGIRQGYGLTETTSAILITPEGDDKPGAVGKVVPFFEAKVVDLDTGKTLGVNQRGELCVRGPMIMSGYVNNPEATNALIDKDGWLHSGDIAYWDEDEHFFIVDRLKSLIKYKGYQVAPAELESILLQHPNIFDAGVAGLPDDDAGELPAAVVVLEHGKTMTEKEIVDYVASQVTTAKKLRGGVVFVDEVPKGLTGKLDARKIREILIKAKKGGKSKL

Genome polyprotein = Genome polyprotein (dengue virus type 2, UniProt P29990); assay: Dengue-2 NS5 methyltransferase inhibitors, primary screen, biochemical, confirmation dose response (AID 588689); type: functional
Sequence of Genome polyprotein (P29990 2492-3391 limits assumed): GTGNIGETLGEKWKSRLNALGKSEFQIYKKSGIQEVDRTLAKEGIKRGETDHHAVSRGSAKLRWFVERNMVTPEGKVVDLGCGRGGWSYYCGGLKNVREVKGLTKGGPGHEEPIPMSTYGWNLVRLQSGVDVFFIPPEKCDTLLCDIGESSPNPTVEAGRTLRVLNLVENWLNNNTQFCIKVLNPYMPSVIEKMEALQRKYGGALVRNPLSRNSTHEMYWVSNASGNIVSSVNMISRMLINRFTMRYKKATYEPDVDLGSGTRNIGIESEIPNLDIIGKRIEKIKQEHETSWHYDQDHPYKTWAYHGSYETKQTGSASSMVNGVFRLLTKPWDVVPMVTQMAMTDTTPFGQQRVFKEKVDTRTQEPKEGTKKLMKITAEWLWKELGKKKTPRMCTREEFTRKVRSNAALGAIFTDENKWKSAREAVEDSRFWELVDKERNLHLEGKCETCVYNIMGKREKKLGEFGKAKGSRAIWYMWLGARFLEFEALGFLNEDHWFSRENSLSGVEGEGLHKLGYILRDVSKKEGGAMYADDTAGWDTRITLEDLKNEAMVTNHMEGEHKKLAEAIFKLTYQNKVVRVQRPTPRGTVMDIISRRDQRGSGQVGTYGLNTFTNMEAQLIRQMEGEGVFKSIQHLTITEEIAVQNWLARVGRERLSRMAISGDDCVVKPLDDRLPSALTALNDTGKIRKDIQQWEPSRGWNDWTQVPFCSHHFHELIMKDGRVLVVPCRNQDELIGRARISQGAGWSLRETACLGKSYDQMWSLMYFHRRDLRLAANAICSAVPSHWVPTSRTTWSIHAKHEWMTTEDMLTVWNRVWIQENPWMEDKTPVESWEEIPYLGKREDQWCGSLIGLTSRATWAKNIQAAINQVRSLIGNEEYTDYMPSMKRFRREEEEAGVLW

[8] = off-target signal loss in HeLa-CEM21 co-culture – HeLa F-luc CTL cells, cherry-picked, counter-screen for HIV-1 Env fusion inhibitor project, dose response (AID 652040); type: functional, cell-based;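 note: potency for signal decrease marking cytotoxic or nonspecific inhibition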
[9] = inhibitors of HIV Env-driven cell fusion, dose response, cherry-pick (AID 652057); type: functional, cell-based
[10] = Luminescence Cell-Based Dose Retest to Confirm Inhibitors of Cancer Stem Cells. [Related pubchem assays (depositor defined):AID2717, AID2721]; type: functional; details: Homo sapiens
[11] = ZM109 Env clade C HIV-1 fusion inhibitors, dose response, HeLa effector, CEM target cells, luciferase, cherry-pick (AID 652058); type: functional, cell-based
[12] = inhibitors of clade B AD8 Env fusion, dose response, cell-based, cherry-pick (AID 652062); type: functional;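 note: luciferase signal from cell-cell fusion driven by HIV-1 clade B AD8 Env; potency is for inhibitors of fusion seen as a drop in luminescence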
Paired box protein Pax-8 = Paired box protein Pax-8 (Homo sapiens, UniProt Q06710); assay: inhibitors of PAX8-driven TPO luciferase reporter, dose response, RMG-I cells, cherry-pick (AID 687027); type: functional, cell-based;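 note: luciferase reporter driven by Pax8 target thyroperoxidase promoter measured by SteadyGlo luminescence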
Sequence of Paired box protein Pax-8 (Q06710 whole entry): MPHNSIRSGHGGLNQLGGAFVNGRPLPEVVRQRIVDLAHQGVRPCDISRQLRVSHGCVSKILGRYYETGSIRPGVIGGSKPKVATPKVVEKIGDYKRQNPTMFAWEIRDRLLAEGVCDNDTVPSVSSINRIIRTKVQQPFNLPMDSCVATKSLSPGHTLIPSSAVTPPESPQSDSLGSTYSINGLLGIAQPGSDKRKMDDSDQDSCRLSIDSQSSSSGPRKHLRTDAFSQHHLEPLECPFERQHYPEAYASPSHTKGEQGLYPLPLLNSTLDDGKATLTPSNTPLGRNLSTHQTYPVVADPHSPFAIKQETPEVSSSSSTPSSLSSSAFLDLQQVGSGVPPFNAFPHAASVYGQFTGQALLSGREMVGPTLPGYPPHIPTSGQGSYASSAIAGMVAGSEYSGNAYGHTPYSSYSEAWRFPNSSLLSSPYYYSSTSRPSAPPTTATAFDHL

P388/ADR = assay: cells; type: functional; details: Mus musculus
SN12K1 = assay: cells; type: functional; details: Homo sapiens

CC(=O)Nc1ccc(NC(=O)CSc2nc(N)c(NC(=O)c3ccccc3F)c(=O)[nH]2)cc1
IC50 [1]: 11.9 µM (active)

Fc1cc(F)cc(-c2c(-c3ccccc3)ncc3ccc(F)cc23)c1
IC50 [1]: 8.88 µM (active)

CN(C)C(=O)COC(=O)c1ccc(S(=O)(=O)NCc2ccco2)cc1
IC50 [1]: 6.65 µM (active)

O=C1NC(=O)N(c2ccc(F)cc2)C(=O)/C1=C/Nc1ccccc1N1CCCC1
EC50 [2]: 103 µM (active)
EC50 [3]: 76.7 µM (active)

O=C(c1ccc([N+](=O)[O-])s1)N1CCCc2ccccc21
AC50 [4]: 11.2 µM (active)

Cc1ccc(N2C(=O)C3C4C=CC(CN=C(S)N5CCN(c6cccc(C)c6)C(C)C5)(O4)C3C2=O)cc1 (configuration not stated)
AC50 [5]: 8.5 µM (active)

COC(=O)C(C#N)c1nc2ccccc2nc1N1CCN(Cc2ccc3c(c2)OCO3)CC1 (configuration not stated)
EC50 [6]: > 112 µM (not active)
EC50 [7]: > 112 µM (not active)

Cc1ccccc1NC(=O)/C(C#N)=C\c1cc(C)n(-c2ccc(C(=O)O)cc2)c1C
EC50 [2]: > 300 µM (not active)
EC50 [3]: > 300 µM (not active)

CCOC(=O)/C(C#N)=C/c1cc2ccccc2nc1N1CCCCC1
EC50 [2]: 104 µM (active)
EC50 [3]: > 300 µM (not active)

CC(C)OP(=O)(OC(C)C)C1(NS(=O)(=O)c2ccc(Cl)cc2)C=C(Cl)C(=O)C(Cl)=C1
IC50 (Genome polyprotein): 99.3 µM (active)

CN1C(=O)C(=Cc2ccccc2OS(=O)(=O)c2ccccc2)C(=O)N(C)C1=O
EC50 [2]: > 300 µM (not active)
EC50 [3]: > 300 µM (not active)

COc1ccc(/C=C(\C#N)C(=O)Nc2ccc3[nH]c(O)nc3c2)cc1
IC50 [1]: 3.26 µM (active)

CN1CCN(C(=O)c2cc(COc3c(F)cccc3F)on2)CC1c1ccccc1 (configuration not stated)
AC50 [5]: 0.566 µM (active)

O=C(Nc1ccc(Cl)cn1)C1CCCN1S(=O)(=O)c1cccc2ccccc12 (configuration not stated)
AC50 [8]: 53.6 µM (active)
AC50 [9]: 29.8 µM (active)

O=C(/C=C/c1ccccc1[N+](=O)[O-])c1ccccc1Br
AC50 [10]: 7.14 µM (active)
AC50 [5]: 4.37 µM (active)

COc1cccc(NC(=O)C(=O)c2cn(CC(=O)N3CCOCC3)c3ccccc23)c1
EC50 [2]: > 300 µM (not active)
EC50 [3]: > 300 µM (not active)

COCCN(C(=O)c1cc(-c2ccco2)nc2ccccc12)c1c(N)n(Cc2ccccc2)c(=O)[nH]c1=O
IC50 [1]: 6.59 µM (active)

CCOC(=O)C1CCCN(C2CC(=O)N(c3cccc(C(F)(F)F)c3)C2=O)C1 (configuration not stated)
AC50 [5]: 7.53 µM (active)

CCN1CCN(C(=O)c2ccc3c(=O)n(Cc4ccccc4OC)c(=S)[nH]c3c2)CC1
EC50 [2]: > 300 µM (not active)
EC50 [3]: > 300 µM (not active)

CCN(C[C@H]1N[C@@](CC)(C(=O)OC)[C@H]2C(=O)N(Cc3ccccc3)C(=O)[C@@H]12)S(=O)(=O)c1ccc(C(F)(F)F)cc1
AC50 [8]: 1.79 µM (active)
AC50 [11]: 1.3 µM (active)
AC50 [12]: 2.16 µM (active)
AC50 [9]: 1.3 µM (active)

O=C(CN(c1cc(C(F)(F)F)ccc1Cl)S(=O)(=O)c1ccccc1)NCc1cccnc1
AC50 [8]: 3.81 µM (active)
AC50 [11]: 3.01 µM (active)
AC50 [12]: 5.21 µM (active)
AC50 [9]: 1.98 µM (active)

CCC(C)(C)NC(=O)C(c1ccc(C)cc1)N(CC1CCCO1)C(=O)c1csnn1 (configuration not stated)
AC50 [8]: 6.84 µM (active)
AC50 [11]: 2.82 µM (active)
AC50 [12]: 7.81 µM (active)
AC50 [9]: 4.81 µM (active)

COC(=O)[C@@]1(Cc2ccccc2)[C@H]2C(=O)N(Cc3ccccc3)C(=O)[C@H]2[C@H]2CN=C(SCc3ccc(C#N)cc3)N21
AC50 [8]: 4.57 µM (active)
AC50 [11]: 3.83 µM (active)
AC50 [12]: 4.69 µM (active)
AC50 [9]: 2.07 µM (active)

COc1ccc([C@@H]2[C@@H]3C(=O)N(C(C)(C)C)C(=O)[C@@H]3[C@]3(CC(C)C)C(=O)N(c4cccc(F)c4)C(=O)N23)cc1
AC50 [8]: < 0.26 µM (active)
AC50 [11]: < 0.26 µM (active)
AC50 [12]: < 0.26 µM (active)
AC50 [9]: < 0.26 µM (active)

O=C(C[C@H]1CC[C@H]2[C@@H](COC[C@@H](O)CN2Cc2ccc(F)cc2)O1)NCc1ccccc1Cl
AC50 (Paired box protein Pax-8): 23.7 µM (active)

O=C(Cn1cc(/C=N/NC(=O)c2cccc(C(F)(F)F)c2)c2ccccc21)Nc1ccc(F)cc1
IC50 [1]: 4.23 µM (active)

Nc1cc2[nH]cnc2c(=O)[nH]1 [DEZAGUANINE]
GI50 (P388/ADR): 10.2 µM (inactive)
GI50 (SN12K1): 13.8 µM (inactive)
